The record followed here is ChEMBL document CHEMBL1201862, “PubChem BioAssay data set” (2004).

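Step 1: Grow cells in 96-well plates. Step 2: Expose to compound for 48 hours at 5 concentrations. Step 3: Interpolate endpoints linearly; if unreached, use highest concentration. GI50: concentration for 50% inhibition of growth.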 Active and inactive are the calls of the source. No stated cut-off is given here; in the data, active = GI50 up to about 1.1 µM and inactive = higher. Where only a bound is given, the exact number is not on record here.

Test in all cases: DTP human tumour cell line panel, 48 h
Experiment [1] has as its system PC-3.
For experiment [2], the system named is ACHN.
Experiment [3] has as its system MOLT-4.
In experiment [4] the test system is MDA-MB-435.
Experiment [5] has as its system COLO 205.
The test system of experiment [6] is SK-OV-3.
Experiment [7] has as its system HCT-116.
Experiment [8] relates to NCI-H522.
The subject of experiment [9] is SK-MEL-5.
Experiment [10] relates to K562.
Experiment [11] deals with CCRF-CEM.
Experiment [12] relates to EKVX.
Experiment [13] concerns BT-549.
Experiment [14] has as its system SNB-75.
Experiment [15] concerns SF-295.
Experiment [16] deals with MCF7.
For experiment [17], the system named is NCI-H23.
In experiment [18] the test system is RPMI-8226.
Experiment [19] has as its system HCT-15.
In experiment [20] the test system is T47D.

Usually GI50 stands for the concentration at which growth is held to half of that of the control. `CN(C)CCCN=C(N)N`: the GI50 in experiment [1], in experiment [2], in experiment [3], in [4], in experiment [5] and in [6] was > 100 µM (inactive) throughout. Also, the GI50 in experiment [7], in experiment [8], in [9], in [10], in [11] and in [12] was > 100 µM (inactive) throughout. The GI50 in experiment [13], in experiment [14], in [15], in experiment [16], in experiment [17] and in experiment [18] was > 100 µM (inactive) in each case. Moreover, the GI50 was above 100 µM in experiment [19] and > 100 µM (inactive) in experiment [20].

Regarding `CCSc1nnc2c(-c3ccccc3)n[nH]c2n1`, the GI50 was > 100 µM (inactive) in experiment [1]; > 100 µM (inactive) in [2]; > 100 µM (inactive) in [3]; > 100 µM (inactive) in [4]; > 100 µM (inactive) in experiment [5]; 44.3 µM (inactive) in experiment [6]. Besides, the GI50 in experiment [7] was > 100 µM (inactive); in experiment [8], > 100 µM (inactive); in experiment [9], > 100 µM (inactive); in experiment [10], > 100 µM (inactive); in [11], 24.3 µM (inactive); in experiment [12] it was 16 µM (inactive). For the same compound, the GI50 in [13] was > 100 µM (inactive); in experiment [14], 27.2 µM (inactive); in experiment [15], 31 µM (inactive); in experiment [16], > 100 µM (inactive); in experiment [17], > 100 µM (inactive); in [18], > 100 µM (inactive). Besides, the GI50 in [19] was above 100 µM; in experiment [20], > 100 µM (inactive).

For the compound `BrCCC[P+](c1ccccc1)(c1ccccc1)c1ccccc1`, the GI50 is 5.65 µM (inactive) in experiment [1]; > 100 µM (inactive) in experiment [2]; 9.66 µM (inactive) in [3]; 4.61 µM (inactive) in [4]; 1.61 µM (inactive) in experiment [5]; 83.4 µM (inactive) in [6]. For the same compound, the GI50 in experiment [7] is 1.64 µM (inactive); in experiment [8], 3.34 µM (inactive); in experiment [9] it was 6.27 µM (inactive); in experiment [10] it was 3.16 µM (inactive); in [11] it was > 30.5 µM (inactive); in experiment [12] it was 14.4 µM (inactive). The GI50 in [13] was 8.39 µM (inactive); in experiment [14] it was 12 µM (inactive); in experiment [15], 40.8 µM (inactive); in experiment [16], 6.22 µM (inactive); in experiment [17], 12.3 µM (inactive); in experiment [18], 0.615 µM (active). Also, the figures for the GI50 in [19] and in experiment [20] were above 100 µM and 5.85 µM (inactive), respectively.

As to `O=C1C(=Cc2ccco2)C(=O)C2CCCCC12` (stereo not given), the GI50 in experiment [1], in experiment [2], in [3], in [4], in [5] and in experiment [6] was > 100 µM (inactive) throughout. Moreover, the GI50 in experiment [7] was > 100 µM (inactive); in [8], > 100 µM (inactive); in experiment [9], > 100 µM (inactive); in experiment [10] it was 17.6 µM (inactive); in experiment [11], > 100 µM (inactive); in experiment [12] it was > 100 µM (inactive). Besides, the GI50 in experiment [13], in experiment [14], in experiment [15], in experiment [16], in [17] and in [18] was > 100 µM (inactive) in each case. For the same compound, the GI50 in [19] is above 100 µM; in [20] it was > 100 µM (inactive).

For `O=c1c2cc(I)ccc2nc(Sc2ncccc2[N+](=O)[O-])n1Cc1ccccc1`, the GI50 in experiment [1] was 26.5 µM (inactive); in [2] it was 39.1 µM (inactive); in [3] it was 23.2 µM (inactive); in experiment [4] it was 23.7 µM (inactive); in experiment [5], 27.5 µM (inactive); in experiment [6] it was 63.1 µM (inactive). The GI50 in experiment [7] was 18.8 µM (inactive); in experiment [8], 13.2 µM (inactive); in experiment [9] it was 18.3 µM (inactive); in [10] it was 38.5 µM (inactive); in experiment [11], 0.249 µM (active); in experiment [12] it was 17.7 µM (inactive). For the same compound, the GI50 in experiment [13] is 11.6 µM (inactive); in [14], 7.08 µM (inactive); in [15], 60 µM (inactive); in experiment [16] it was 18.3 µM (inactive); in experiment [17], 24 µM (inactive); in experiment [18] it was 19.1 µM (inactive). The figures for the GI50 in [19] and in [20] were 19.3 µM and 26.3 µM (inactive), respectively.

As to `N=c1c2c(-c3ccccc3)c[nH]c2ncn1N`, the GI50 in experiment [1], in experiment [2], in experiment [3], in experiment [4], in [5] and in experiment [6] was > 100 µM (inactive) throughout. For the same compound, the GI50 in experiment [7], in experiment [8], in [9], in [10], in [11] and in experiment [12] was > 100 µM (inactive) throughout. For the same compound, the GI50 in experiment [13], in experiment [14], in [15], in experiment [16], in [17] and in experiment [18] was > 100 µM (inactive) in each case. In addition, the GI50 in experiment [19] is above 100 µM; in experiment [20] it was > 100 µM (inactive).

As for `NS(=O)(=O)c1ccc(NCc2cnc3ccccc3n2)cc1`, the GI50 in experiment [1], in [2], in [3], in experiment [4], in experiment [5] and in experiment [6] was > 100 µM (inactive) in each case. Further, the GI50 in experiment [7], in experiment [8], in experiment [9], in experiment [10], in experiment [11] and in [12] was > 100 µM (inactive) in each case. In addition, the GI50 in experiment [13], in experiment [14], in experiment [15], in experiment [16], in experiment [17] and in experiment [18] was > 100 µM (inactive) throughout. Further, the GI50 in experiment [19] was above 100 µM; in experiment [20] it was > 100 µM (inactive).

With `Nc1nc2c(C(=O)O)c3ccc([N+](=O)[O-])cc3c(=O)n2c2ccccc12`, the GI50 in experiment [1] was 24.5 µM (inactive); in experiment [2], 33.1 µM (inactive); in [3] it was 14.4 µM (inactive); in [4], 27.2 µM (inactive); in experiment [5], 34.8 µM (inactive); in experiment [6] it was 21 µM (inactive). Further, the GI50 in experiment [7] is 16.9 µM (inactive); in [8] it was 19.9 µM (inactive); in experiment [9] it was 24.7 µM (inactive); in experiment [10] it was 19.5 µM (inactive); in experiment [11], 42.1 µM (inactive); in experiment [12] it was 27.9 µM (inactive). Also, the GI50 in experiment [13] was 27.9 µM (inactive); in [14] it was 3.44 µM (inactive); in experiment [15] it was 29.1 µM (inactive); in experiment [16], 16.2 µM (inactive); in [17], 22.6 µM (inactive); in experiment [18], 27.5 µM (inactive). The results for the GI50 in [19] and in experiment [20] were 22.9 µM and 20.4 µM (inactive), respectively.

Consider `O=C1C=CC(=O)c2c1c1c(c3c2C2c4ccccc4C3c3ccccc32)C2c3ccccc3C1c1ccccc12`, for which the GI50 in [1] was 1.74 µM (inactive); in experiment [2], 1.73 µM (inactive); in experiment [3] it was 0.836 µM (active); in experiment [4], 1.75 µM (inactive); in experiment [5] it was 1.5 µM (inactive); in [6] it was 15 µM (inactive). The GI50 was 1.56 µM (inactive) in experiment [7]; 0.515 µM (active) in experiment [8]; 3.3 µM (inactive) in experiment [9]; 3.69 µM (inactive) in experiment [10]; 0.368 µM (active) in [11]; 3.66 µM (inactive) in experiment [12]. Besides, the GI50 in experiment [13] was 3.26 µM (inactive); in experiment [14] it was 10.2 µM (inactive); in [15] it was 14.9 µM (inactive); in [16], 1.27 µM (inactive); in [17], 2.72 µM (inactive); in [18], 1.79 µM (inactive). The GI50 was 1.54 µM in experiment [19] and 1.41 µM (inactive) in experiment [20].

With `Cc1cc(Cc2cc(C)cc(C(C)(C)C)c2O)c(O)c(Cc2cc(C)cc(C(C)(C)C)c2O)c1`, the GI50 was 2.75 µM (inactive) in experiment [1]; 3.37 µM (inactive) in experiment [2]; 1.41 µM (inactive) in [3]; 3.12 µM (inactive) in experiment [4]; 4.53 µM (inactive) in experiment [5]; 3.33 µM (inactive) in experiment [6]. Besides, the GI50 in [7] is 1.92 µM (inactive); in experiment [8] it was 0.931 µM (active); in experiment [9], 1.08 µM (active); in experiment [10] it was 0.931 µM (active); in [11], 1.73 µM (inactive); in experiment [12] it was 2.82 µM (inactive). For the same compound, the GI50 in experiment [13] is 1.87 µM (inactive); in experiment [14], 4.62 µM (inactive); in experiment [15] it was 3.18 µM (inactive); in experiment [16] it was 2.34 µM (inactive); in experiment [17], 1.66 µM (inactive); in experiment [18] it was 0.724 µM (active). Besides, the GI50 in [19] is 2.24 µM; in [20], 3.01 µM (inactive).
